Results reported in US5342980A, “Fungicidal agents” (American Cyanamid Company, priority 1992, dated 1994).

How the values were obtained:
[1] = test system: Fusarium oxysporum f. sp. cucumerinum; experiment: In vitro fungicidal evaluation, growth inhibition (FUSOXC); format: cell-based; design: scale not given here; conditions: 25 ppm, 3-4 days at 21° C.
Experimental: (§1) Test compounds are dissolved in acetone and dispersed into cell well plates containing a suspension of ground fungal mycelia in a nutrient broth. Assay plates are incubated for 3-4 days at 21° C. Growth inhibition is measured visually and is rated using the following scale:
(§2) Untreated controls, solvent blanks and reference standards are included in each test.
(§3) Assay fungi include the plant pathogens, Pythium ultimum (Pythul); Rhizoctonia solani (Rhizso); Fusarium oxysporum f. sp. cucumerinum (Fusoxc); and Pseudocercosporella herpotrichoides (Psdche).
(§4) When more than one test is run, the data are averaged.

Botrytis cinerea = experiment: In vivo fungicidal evaluation, Pepper Botrytis (PB); conditions: 200 ppm, plants sprayed before inoculation
Pyricularia oryzae = format: in vivo; conditions: 200 ppm, plants sprayed before inoculation
[2] = test system: Puccinia recondita f. sp. tritici; experiment: In vivo fungicidal evaluation, Wheat Leaf Rust (WLR); conditions: 200 ppm, plants sprayed before inoculation
[3] = test system: Erysiphe graminis f. sp. tritici; experiment: In vivo fungicidal evaluation, Wheat Powdery Mildew (WPM); conditions: 200 ppm, plants sprayed before inoculation
Pythium ultimum = experiment: In vitro fungicidal evaluation, growth inhibition (PYTHUL); format: cell-based; design: scale not given here; conditions: 25 ppm, 3-4 days at 21° C.
Experimental: as §1, §2, §3, §4

Rhizoctonia solani [4] = experiment: In vitro fungicidal evaluation, growth inhibition (RHIZSO); format: cell-based; design: scale not given here; conditions: 25 ppm, 3-4 days at 21° C.
Experimental: as §1, §2, §3, §4

Alternaria solani = experiment: In vivo fungicidal evaluation, Tomato Early Blight (TEB); conditions: 200 ppm, plants sprayed before inoculation
Rhizoctonia solani [5] = experiment: In vivo fungicidal evaluation, Rice Sheath Blight (RSB); conditions: 400 ppm, plants sprayed before inoculation
Rhizoctonia solani [6] = experiment: Control of soil borne diseases, Cucumber damping-off by Rhizoctonia (CURS); format: in vivo; conditions: 14-18 days after treatment; also: ranges in brackets are in %
Experimental: (§5) Pasturized soil (100 mL) is added to 6 cm diameter plastic cups without drainage holes and covered with pathogen contaminated soil (30 mL). Ten germinated cucumber seeds are planted on the contaminated soil and the seeds are covered with pasteurized soil (20 mL). Test compounds are dissolved in acetone, diluted with deionized water containing about 0.05% TWEEN 20®, and applied to the pots by drenching the soil surface with 15 mL of test solution. The pots are placed in a greenhouse for disease development. The pots are watered lightly until plants emerge from the soil surface. Disease evaluations are made 14-18 days after treatment according to the rating scale shown below.

Plasmopara viticola = experiment: In vivo fungicidal evaluation, Grape Downy Mildew (GDM); conditions: 200 ppm, plants sprayed before inoculation
[7] = test system: Fusarium oxysporium f. sp. cucumerinum; experiment: Control of soil borne diseases, Cucumber Fusarium Wilt (CUFO); format: in vivo; conditions: 14-18 days after treatment; also: ranges in brackets are in %
Experimental: as §5

[8] = test system: Pseudocercosporella herpotrichoides; experiment: In vitro fungicidal evaluation, growth inhibition (PSDCHE); format: cell-based; design: scale not given here; conditions: 25 ppm, 3-4 days at 21° C.
Experimental: as §1, §2, §3, §4

Cercospora beticola = experiment: In vivo fungicidal evaluation, Sugar Beet Cercospora (SBC); conditions: plants sprayed before inoculation
Venturia inaequalis = experiment: In vivo fungicidal evaluation, Apple Scab (AS); conditions: 200 ppm, plants sprayed before inoculation
Pythium aphanidermantum = experiment: Control of soil borne diseases, Cucumber damping-off by Pythium (CUPA); format: in vivo; conditions: 14-18 days after treatment; also: ranges in brackets are in %
Experimental: as §5

Row | SMILES | growth inhibition rating, FUSOXC [1] | disease control rating, PB (Botrytis cinerea) | disease control rating, RB (Pyricularia oryzae) | disease control rating, WLR [2] | disease control rating, WPM [3] | growth inhibition rating, PYTHUL (Pythium ultimum) | growth inhibition rating, RHIZSO (Rhizoctonia solani [4]) | disease control rating, TEB (Alternaria solani) | disease control rating, RSB (Rhizoctonia solani [5]) | disease control rating, CURS (Rhizoctonia solani [6]; 2.5 kg/ha soil drench) | disease control rating, CURS (Rhizoctonia solani [6]; 5.0 kg/ha soil drench) | disease control rating, CURS (Rhizoctonia solani [6]; 10.0 kg/ha soil drench) | disease control rating, GDM (Plasmopara viticola) | disease control rating, CUFO ([7]; 2.5 kg/ha soil drench) | disease control rating, CUFO ([7]; 5.0 kg/ha soil drench) | disease control rating, CUFO ([7]; 10.0 kg/ha soil drench) | growth inhibition rating, PSDCHE [8] | disease control rating, SBC (Cercospora beticola; 200 ppm) | disease control rating, SBC (Cercospora beticola; 400 ppm) | disease control rating, AS (Venturia inaequalis) | further results
1 | CN([O-])C(=S)C(=O)C(C)(C)C.CN([O-])C(=S)C(=O)C(C)(C)C.CN([O-])C(=S)C(=O)C(C)(C)C.[Fe+3] [N,3,3-trimethyl-2-oxo-1-thiobutyrohydroxamic acid iron(+3) chelate] | 1.3 | 6.0 | 0.0 | 6.5 | 5.5 | 8.0 | 4.5 | 9.0 | 3.3 | 4 (45-55) | 6 (75-85) | 9 (100) | 8.5 | 1 (5-10) | 2 (15-25) | 3 (30-40) | 2.5 | 8.2 | 6.8 | 9.0 | disease control rating, CUPA (Pythium aphanidermantum; 2.5 kg/ha soil drench): 0 (0); disease control rating, CUPA (Pythium aphanidermantum; 5.0 kg/ha soil drench): 1 (5-10); disease control rating, CUPA (Pythium aphanidermantum; 10.0 kg/ha soil drench): 2 (15-25)
2 | CN(O)C(=S)C(=O)C(C)(C)C.CN(O)C(=S)C(=O)C(C)(C)C.[Mn+2] [N,3,3-trimethyl-2-oxo-1-thiobutyrohydroxamic acid manganese(+2) chelate] | 0.0 | 8.5 | 3.0 | 6.5 | 7.0 | 6.0 | 4.5 | 8.5 | 0.0 |  |  |  | 5.5 |  |  |  | 7.0 | 7.5 |  | 8.5 | 
3 | CN([O-])C(=S)C(=O)C(C)(C)C.CN([O-])C(=S)C(=O)C(C)(C)C.[Zn+2] [N,3,3-trimethyl-2-oxo-1-thiobutyrohydroxamic acid zinc(+2) chelate] | 4.5 | 8.5 | 8.0 | 7.5 | 3.0 | 8.5 | 4.5 | 8.5 | 6.0 | 4 (45-55) | 6 (75-85) | 9 (100) | 9.0 | 2 (15-25) | 1 (5-10) | 4 (45-55) | 4.0 | 8.4 | 7.5 | 9.0 | disease control rating, CUPA (Pythium aphanidermantum; 2.5 kg/ha soil drench): 0 (0); disease control rating, CUPA (Pythium aphanidermantum; 5.0 kg/ha soil drench): 2 (15-25); disease control rating, CUPA (Pythium aphanidermantum; 10.0 kg/ha soil drench): 4 (45-55)
